Molecular target: T1, Full-length glucokinase (beta cell isoform) (Homo sapiens, UniProt P35557)
T1 construct: Full-length glucokinase (beta cell isoform) was His-tagged at N-terminus; His tag (N); made in house
T1 sequence (P35557 1-465): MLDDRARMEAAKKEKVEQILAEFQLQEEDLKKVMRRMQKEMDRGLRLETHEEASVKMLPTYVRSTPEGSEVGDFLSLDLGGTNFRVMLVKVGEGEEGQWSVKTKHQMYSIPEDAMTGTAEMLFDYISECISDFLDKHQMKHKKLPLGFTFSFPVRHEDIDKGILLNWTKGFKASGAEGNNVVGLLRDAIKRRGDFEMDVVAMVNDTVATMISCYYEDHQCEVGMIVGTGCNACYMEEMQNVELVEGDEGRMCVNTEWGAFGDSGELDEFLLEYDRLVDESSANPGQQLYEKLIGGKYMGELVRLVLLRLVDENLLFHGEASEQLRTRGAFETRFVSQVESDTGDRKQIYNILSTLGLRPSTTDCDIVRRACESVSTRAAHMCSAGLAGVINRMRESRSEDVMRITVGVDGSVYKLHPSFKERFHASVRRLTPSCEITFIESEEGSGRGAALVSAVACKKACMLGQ
Test: Glucokinase biochemical assay (PK/LDH-coupled, NADH depletion at 340 nm): % activation, EC50, % max activation
Conditions: 5 mM glucose; for activation at 10 µM: 10 uM compound, % Activation=(Va/Vo−1)×100, read-out: % Activation at 10 uM; for EC50: GK activation, read-out: EC50; for Emax: fitted maximum activation, read-out: % Max Activation
Procedure, shortened: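 Activation expressed as (Va/Vo−1)×100, where initial rates with and without compound come from NADH depletion at 340 nm over 200–900 s. Enzyme is His-tagged human beta-cell GK, full length, run at room temperature in HEPES buffer with 1 mM ATP and 5 mM glucose. DMSO 1%.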

| SMILES | activation at 10 µM | EC50 | Emax |
| --- | --- | --- | --- |
| CN(C)C(=O)c1ncc(Oc2cc(C(=O)Nc3ccn(C)n3)cc3c2CC(C)(C)O3)cn1 [Example 164, 5-[2,2-Dimethyl-6-(1-methyl-1H-pyrazol-3-ylcarbamoyl)-2,3-dihydro-benzofuran-4-yloxy]-pyrimidine-2-carboxylic acid dimethylamide] | 112% | 250 nM | 102% |
| Cc1ccc(NC(=O)c2cc(Oc3ccc(C(=O)N(C)C)nc3)c3c(c2)OC(C)(C)C3)nc1 [Example 165, 5-[2,2-Dimethyl-6-(5-methyl-pyridin-2-ylcarbamoyl)-2,3-dihydro-benzofuran-4-yloxy]-pyridine-2-carboxylic acid dimethylamide] | 76.8% | 38 nM | 57% |
| CNC(=O)c1ccc(Oc2cc(C(=O)Nc3ccn(C)n3)cc3c2CC(C)(C)O3)cn1 [Example 166, 5-[2,2-Dimethyl-6-(1-methyl-1H-pyrazol-3-ylcarbamoyl)-2,3-dihydro-benzofuran-4-yloxy]-pyridine-2-carboxylic acid methylamide] | 203% | 410 nM | 212% |
| Cn1ccc(NC(=O)c2cc(Oc3ccc(C(=O)N4CCC4)nc3)c3c(c2)OC(C)(C)C3)n1 [Example 167, 4-[6-(Azetidine-1-carbonyl)-pyridin-3-yloxy]-2,2-dimethyl-2,3-dihydro-benzofuran-6-carboxylic acid (1-methyl-1H-pyrazol-3-yl)-amide] | 148% | 55.3 nM | 146% |

Further lines, results first:

| activation at 10 µM | EC50 | Emax | SMILES |
| --- | --- | --- | --- |
| 172% | 199 nM | 184% | CCNC(=O)c1ccc(Oc2cc(C(=O)Nc3ccn(C)n3)cc3c2CC(C)(C)O3)cn1 [Example 168, 5-[2,2-Dimethyl-6-(1-methyl-1H-pyrazol-3-ylcarbamoyl)-2,3-dihydro-benzofuran-4-yloxy]-pyridine-2-carboxylic acid ethylamide] |
| 125% | 56 nM | 141% | Cn1ncc(NC(=O)c2cc(Oc3ccc(C(=O)N4CCC4)nc3)c3c(c2)OC(C)(C)C3)n1 [Example 169, 4-[6-(Azetidine-1-carbonyl)-pyridin-3-yloxy]-2,2-dimethyl-2,3-dihydro-benzofuran-6-carboxylic acid (2-methyl-2H-[1,2,3]triazol-4-yl)-amide] |
| 264% | 300 nM | 255% | CNC(=O)c1ccc(Oc2cc(C(=O)Nc3cnn(C)n3)cc3c2CC(C)(C)O3)cn1 [Example 170, 5-[2,2-Dimethyl-6-(2-methyl-2H-[1,2,3]triazol-4-ylcarbamoyl)-2,3-dihydro-benzofuran-4-yloxy]-pyridine-2-carboxylic acid methylamide] |
| 171% | 3600 nM | 213% | CNC(=O)c1ncc(Oc2cc(C(=O)Nc3ccn(C)n3)cc3c2CC(C)(C)O3)cn1 [Example 171, 5-[2,2-Dimethyl-6-(1-methyl-1H-pyrazol-3-ylcarbamoyl)-2,3-dihydro-benzofuran-4-yloxy]-pyrimidine-2-carboxylic acid methylamide] |
| 186% | 480 nM | 169% | Cn1ccc(NC(=O)c2cc(Oc3cnc(C(=O)N4CCC4)nc3)c3c(c2)OC(C)(C)C3)n1 [Example 172, 4-[2-(Azetidine-1-carbonyl)-pyrimidin-5-yloxy]-2,2-dimethyl-2,3-dihydro-benzofuran-6-carboxylic acid (1-methyl-1H-pyrazol-3-yl)-amide] |
| 159% | 68 nM | 148% | Cn1ccc(NC(=O)c2cc(Oc3cnc(C(=O)N4CCC4)c(F)c3)c3c(c2)OC(C)(C)C3)n1 [Example 173, 4-[6-(Azetidine-1-carbonyl)-5-fluoro-pyridin-3-yloxy]-2,2-dimethyl-2,3-dihydro-benzofuran-6-carboxylic acid (1-methyl-1H-pyrazol-3-yl)-amide] |

— patent US8119624B2, “Fused phenyl amido heterocyclic compounds” (Pfizer Inc., priority 2006, dated 2012)
